This note sets out measurements from PubChem BioAssay (NCI).

The structures appear in SMILES notation.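 Five compound concentrations were applied to cells in 96-well plates for 48 hours; endpoints were derived by simple linear interpolation of the resulting dose-response curve. At the TGI there is no net growth.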 Where only a bound is given, the exact number is not on record here.

Holding throughout (experiment): NCI tumour cell line growth inhibition, 48 h
The subject of test [1] is BT-549 breast.
The test system of test [2] is COLO 205 colon.
Test [3] relates to MOLT-4 leukemia.
In test [4] the test system is NCI-H226 lung.
In test [5] the test system is NCI-H522 lung.
Test [6] concerns OVCAR-3 ovarian.
For test [7], the system named is OVCAR-4 ovarian.
Test [8] relates to SF-268 CNS.
Test [9] relates to SF-295 CNS.
Test [10] relates to SF-539 CNS.
The subject of test [11] is SN12C renal.
The test system of test [12] is SW-620 colon.

Regarding `O=C(O)c1c(-c2c3ccc(=O)cc-3oc3cc(O)ccc23)cc2ccccc2c1-c1ccccc1`, the TGI is greater than 100 µM in [1]; greater than 100 µM in test [2]; 8.37 µM in test [3]; greater than 100 µM in test [4]; greater than 100 µM in test [5]; greater than 100 µM in [6]. For the same compound, the TGI in test [7], in test [8], in test [9], in test [10], in test [11] and in [12] was greater than 100 µM each time.

Take `CCOC(=O)CCC(C(=O)OCC)n1nc2ccc(Nc3c(C)[n+]([O-])c4cc(Cl)ccc4[n+]3[O-])cc2n1` (configuration not stated): the TGI in test [1], in test [2], in test [3], in [4], in test [5] and in test [6] was greater than 100 µM each time. In addition, the TGI in test [7], in test [8], in test [9], in test [10], in [11] and in [12] was greater than 100 µM in each case.

With `c1ccc2c(c1)CCc1c-2n(CCN2CCCCC2)c2ccccc12`, the TGI was 42.1 µM in [1]; 26.2 µM in test [2]; 44.8 µM in [3]; 25.1 µM in test [4]; 27.1 µM in test [5]; 31.1 µM in test [6]. Besides, the TGI is 59.4 µM in test [7]; 49.5 µM in [8]; 30.8 µM in [9]; 26.6 µM in test [10]; 36.9 µM in test [11]; 50.1 µM in test [12].

Consider `O=C(CCCCCCCCC(=O)NN1C(=O)/C(=C\c2ccc(O)c(O)c2)SC1c1c(O)ccc2ccccc12)NN1C(=O)C(=Cc2ccc(O)c(O)c2)SC1c1c(O)ccc2ccccc12` (configuration not stated), for which the TGI was greater than 100 µM in test [1]; 73.5 µM in test [2]; greater than 29.8 µM in test [3]; greater than 100 µM in [4]; 30.7 µM in test [5]; greater than 32.9 µM in [6]. Further, the TGI in test [7] was greater than 100 µM; in [8], greater than 100 µM; in test [9], greater than 100 µM; in [10], 97.2 µM; in [11], greater than 87.4 µM; in [12], greater than 100 µM.

As to `FC(F)(F)c1ccc2c(c1)nc(Cc1ccccc1)n2C[C@@H]1CCCN2CCCCC12` (some centres not stated), the TGI in test [1] is 28.7 µM; in test [2], 31.2 µM; in test [3], greater than 52.7 µM; in [4], 40.4 µM; in [5] it was 31.6 µM; in test [6], 28 µM. In addition, the TGI is 31.5 µM in test [7]; 31 µM in test [8]; 29.6 µM in test [9]; 35.6 µM in test [10]; 27 µM in test [11]; greater than 65.7 µM in test [12].

Regarding `COC(=O)C(NC(=O)CNC(=O)CSc1nnc(COc2ccc(Cl)cc2)n1-c1ccccc1)C(C)C` (configuration not stated), the TGI was 34 µM in test [1]; 34.1 µM in test [2]; greater than 100 µM in test [3]; 38.3 µM in [4]; 19.3 µM in [5]; 31.6 µM in test [6]. In addition, the TGI amounted to 57.1 µM in test [7]; 42.7 µM in [8]; 34.5 µM in test [9]; 31.9 µM in test [10]; 35.9 µM in test [11]; 38.2 µM in test [12].

`CC(C)(C)c1cc(-c2ccc(-c3cc(C(C)(C)C)c(O)c(C(C)(C)C)c3)cc2)cc(C(C)(C)C)c1O`: the TGI in [1], in [2], in test [3], in [4], in test [5] and in test [6] was greater than 100 µM each time. The TGI in test [7], in [8], in test [9], in test [10], in test [11] and in [12] was greater than 100 µM in each case.

Take `N#Cc1c(=O)c2cc([N+](=O)[O-])ccc2n2c1[nH]c1ccccc12`: the TGI is greater than 69.5 µM in test [1]; greater than 44.4 µM in test [2]; greater than 76.1 µM in test [3]; greater than 51 µM in test [4]; 5.75 µM in test [5]; greater than 55.7 µM in test [6]. Moreover, the TGI is greater than 100 µM in [7]; greater than 100 µM in test [8]; greater than 52.2 µM in test [9]; greater than 100 µM in test [10]; greater than 100 µM in test [11]; greater than 100 µM in test [12].

With `Cn1c(-c2csc(-c3ccc(Cl)cc3)n2)n[nH]c1=S`, the TGI in [1] was 55.8 µM; in test [2], greater than 100 µM; in [3] it was greater than 100 µM; in test [4] it was 57.3 µM; in test [5] it was 41 µM; in test [6] it was 34.9 µM. The TGI was 50.9 µM in test [7]; 81.4 µM in test [8]; 34.3 µM in test [9]; 46.7 µM in test [10]; greater than 100 µM in test [11]; greater than 100 µM in test [12].

Turning to `C=CCN1C(=O)/C(=C/c2ccc(C)cc2)N=C1SC/C=C/C`, the TGI in [1] is greater than 100 µM; in test [2] it was 90.5 µM; in test [3] it was 37.8 µM; in test [4] it was greater than 100 µM; in test [5], greater than 100 µM; in test [6] it was greater than 100 µM. Further, the TGI in test [7], in [8], in [9], in test [10], in test [11] and in test [12] was greater than 100 µM throughout.

Take `Clc1ccc(OCc2nnc3sc(-c4ccc(-c5ccc(Cl)cc5Cl)o4)nn23)c(Cl)c1`: the TGI in test [1] was found to be 50.6 µM; in test [2], 73.7 µM; in [3] it was 41.3 µM; in [4], 41.5 µM; in [5] it was 34.6 µM; in [6], 34 µM. The TGI in test [7] is greater than 100 µM; in [8], 32.5 µM; in [9], 33.6 µM; in test [10], 32.2 µM; in test [11], 38.9 µM; in test [12] it was greater than 100 µM.
